In ChEMBL document CHEMBL4507303, “Data for DCP probe TP-004” (2021):

What was measured:
[1] = target: LIM domain kinase 2 (Homo sapiens) (UniProt P53671); details: Compound concentration 1000.0 nM
[2] = target: Microtubule-associated serine/threonine-protein kinase 1 (Homo sapiens) (UniProt Q9Y2H9); details: Compound concentration 1000.0 nM
[3] = target: Protein kinase C iota type (Homo sapiens) (UniProt P41743); details: Compound concentration 1000.0 nM
[4] = target: Ribosomal protein S6 kinase alpha-4 (Homo sapiens) (UniProt O75676); details: Compound concentration 1000.0 nM
Ribosomal protein S6 kinase alpha-4 (Homo sapiens), sequence (O75676 whole entry, looked up): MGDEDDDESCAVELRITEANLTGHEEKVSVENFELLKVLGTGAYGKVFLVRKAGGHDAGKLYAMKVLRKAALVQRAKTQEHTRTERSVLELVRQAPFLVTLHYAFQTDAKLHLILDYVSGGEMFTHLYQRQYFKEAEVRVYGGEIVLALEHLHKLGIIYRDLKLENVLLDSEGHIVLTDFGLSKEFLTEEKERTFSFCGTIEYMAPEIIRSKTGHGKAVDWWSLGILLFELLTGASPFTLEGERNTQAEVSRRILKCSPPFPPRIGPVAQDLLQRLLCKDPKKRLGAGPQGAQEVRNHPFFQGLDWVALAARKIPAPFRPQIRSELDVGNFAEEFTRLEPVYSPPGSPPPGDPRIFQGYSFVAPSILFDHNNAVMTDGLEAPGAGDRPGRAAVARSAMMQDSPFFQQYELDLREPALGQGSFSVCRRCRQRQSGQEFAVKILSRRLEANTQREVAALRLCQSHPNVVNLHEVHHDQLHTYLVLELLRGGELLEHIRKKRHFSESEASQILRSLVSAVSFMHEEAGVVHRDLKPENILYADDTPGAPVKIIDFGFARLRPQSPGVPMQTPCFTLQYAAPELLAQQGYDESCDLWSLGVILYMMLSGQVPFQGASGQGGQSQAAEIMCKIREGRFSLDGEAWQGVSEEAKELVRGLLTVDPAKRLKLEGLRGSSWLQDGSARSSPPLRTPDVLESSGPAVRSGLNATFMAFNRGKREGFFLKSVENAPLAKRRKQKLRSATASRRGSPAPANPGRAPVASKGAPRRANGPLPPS

[5] = target: MAP/microtubule affinity-regulating kinase 4 (Homo sapiens) (UniProt Q96L34); details: Compound concentration 1000.0 nM
[6] = target: Serine/threonine-protein kinase D2 (Homo sapiens) (UniProt Q9BZL6); details: Compound concentration 1000.0 nM
[7] = target: Cyclin-dependent kinase 4 (Homo sapiens) (UniProt P11802); details: Compound concentration 1000.0 nM
[8] = target: Glycogen synthase kinase-3 beta (Homo sapiens) (UniProt P49841); details: Compound concentration 1000.0 nM
[9] = target: Receptor-type tyrosine-protein kinase FLT3 (Homo sapiens) (UniProt P36888); details: Compound concentration 1000.0 nM
[10] = system: Epidermal growth factor receptor (Homo sapiens), P00533 [G719C]; details: Compound concentration 1000.0 nM
[11] = target: Bone morphogenetic protein receptor type-2 (Homo sapiens) (UniProt Q13873); details: Compound concentration 1000.0 nM
[12] = target: Serine/threonine-protein kinase 3 (Homo sapiens) (UniProt Q13188); details: Compound concentration 1000.0 nM
Serine/threonine-protein kinase 3 (Homo sapiens), sequence (Q13188 whole entry): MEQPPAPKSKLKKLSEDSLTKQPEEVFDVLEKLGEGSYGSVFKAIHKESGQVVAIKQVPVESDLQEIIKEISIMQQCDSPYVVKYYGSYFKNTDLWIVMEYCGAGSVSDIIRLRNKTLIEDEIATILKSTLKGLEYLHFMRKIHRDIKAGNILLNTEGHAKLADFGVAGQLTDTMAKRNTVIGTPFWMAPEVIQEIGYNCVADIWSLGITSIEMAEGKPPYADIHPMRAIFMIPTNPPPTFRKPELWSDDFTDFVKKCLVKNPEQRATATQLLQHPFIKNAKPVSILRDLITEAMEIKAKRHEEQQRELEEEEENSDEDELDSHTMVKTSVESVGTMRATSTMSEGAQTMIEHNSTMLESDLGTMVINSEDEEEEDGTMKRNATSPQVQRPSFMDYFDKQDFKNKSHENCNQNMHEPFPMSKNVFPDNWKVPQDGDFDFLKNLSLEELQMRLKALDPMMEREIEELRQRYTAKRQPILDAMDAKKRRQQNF

[13] = target: Platelet-derived growth factor receptor alpha (Homo sapiens) (UniProt P16234); details: Compound concentration 1000.0 nM
[14] = target: Casein kinase I isoform delta (Homo sapiens) (UniProt P48730); details: Compound concentration 1000.0 nM
[15] = target: Tyrosine-protein kinase ABL1 (Homo sapiens) (UniProt P00519); details: Compound concentration 1000.0 nM
[16] = target: Membrane-associated tyrosine- and threonine-specific cdc2-inhibitory kinase (Homo sapiens) (UniProt Q99640); details: Compound concentration 1000.0 nM
[17] = target: Serine/threonine-protein kinase 16 (Homo sapiens) (UniProt O75716); details: Compound concentration 1000.0 nM
[18] = target: Ephrin type-B receptor 4 (Homo sapiens) (UniProt P54760); details: Compound concentration 1000.0 nM
[19] = target: Ephrin type-A receptor 5 (Homo sapiens) (UniProt P54756); details: Compound concentration 1000.0 nM
[20] = target: Cyclin-dependent kinase 3 (Homo sapiens) (UniProt Q00526); details: Compound concentration 1000.0 nM
[21] = target: Tyrosine-protein kinase Lck (Homo sapiens) (UniProt P06239); details: Compound concentration 1000.0 nM
[22] = target: Ephrin type-A receptor 8 (Homo sapiens) (UniProt P29322); details: Compound concentration 1000.0 nM
[23] = target: Dual specificity protein kinase CLK4 (Homo sapiens) (UniProt Q9HAZ1); details: Compound concentration 1000.0 nM
[24] = target: RAF proto-oncogene serine/threonine-protein kinase (Homo sapiens) (UniProt P04049); details: Compound concentration 1000.0 nM
RAF proto-oncogene serine/threonine-protein kinase (Homo sapiens), sequence (P04049 whole entry): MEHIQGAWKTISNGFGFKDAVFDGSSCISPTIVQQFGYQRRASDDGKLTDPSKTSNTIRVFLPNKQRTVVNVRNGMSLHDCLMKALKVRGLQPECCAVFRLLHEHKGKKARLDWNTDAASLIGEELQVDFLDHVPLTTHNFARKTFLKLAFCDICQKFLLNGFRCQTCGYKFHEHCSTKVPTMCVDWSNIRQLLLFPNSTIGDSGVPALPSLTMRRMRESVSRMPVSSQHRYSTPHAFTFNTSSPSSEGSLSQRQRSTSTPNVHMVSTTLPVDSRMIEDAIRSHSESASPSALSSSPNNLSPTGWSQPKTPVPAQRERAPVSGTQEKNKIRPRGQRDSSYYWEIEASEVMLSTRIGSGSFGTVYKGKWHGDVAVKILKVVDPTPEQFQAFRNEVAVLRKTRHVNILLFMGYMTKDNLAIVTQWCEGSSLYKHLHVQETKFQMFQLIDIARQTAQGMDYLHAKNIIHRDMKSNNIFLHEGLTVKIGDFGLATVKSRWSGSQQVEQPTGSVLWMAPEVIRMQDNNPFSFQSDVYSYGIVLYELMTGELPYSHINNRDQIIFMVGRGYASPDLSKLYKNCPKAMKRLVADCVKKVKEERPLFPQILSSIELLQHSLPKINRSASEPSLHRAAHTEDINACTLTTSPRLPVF

[25] = system: Receptor-type tyrosine-protein kinase FLT3 (Homo sapiens), P36888 [D835H]; details: Compound concentration 1000.0 nM
[26] = system: Epidermal growth factor receptor (Homo sapiens), P00533 [UNDEFINED MUTATION]; details: Compound concentration 1000.0 nM
[27] = target: Tyrosine-protein kinase TXK (Homo sapiens) (UniProt P42681); details: Compound concentration 1000.0 nM
[28] = target: Ribosomal protein S6 kinase alpha-4 (Homo sapiens) (UniProt O75676); details: Compound concentration 1000.0 nM; remark: listed apart in the source
[29] = target: Alpha-1B adrenergic receptor (Homo sapiens) (UniProt P35368); details: Compound concentration 10.0 uM
[30] = target: 5-hydroxytryptamine receptor 2A (Homo sapiens) (UniProt P28223); details: Compound concentration 10.0 uM
[31] = target: Calcium-dependent protein kinase 1 (Plasmodium falciparum) (UniProt P62344); details: Compound concentration 1000.0 nM
[32] = target: Muscarinic acetylcholine receptor M3 (Homo sapiens) (UniProt P20309); details: Compound concentration 10.0 uM
[33] = target: Phosphatidylinositol 4-phosphate 5-kinase type-1 gamma (Homo sapiens) (UniProt O60331); details: Compound concentration 1000.0 nM
[34] = system: eIF-2-alpha kinase GCN2 (Homo sapiens), Q9P2K8 [S808G]; details: Compound concentration 1000.0 nM
[35] = target: Serine/threonine-protein kinase MARK1 (Homo sapiens) (UniProt Q9P0L2); details: Compound concentration 1000.0 nM
[36] = target: Serine/threonine-protein kinase B-raf (Homo sapiens) (UniProt P15056); details: Compound concentration 1000.0 nM
[37] = target: BMP-2-inducible protein kinase (Homo sapiens) (UniProt Q9NSY1); details: Compound concentration 1000.0 nM
[38] = target: Serine/threonine-protein kinase SBK1 (Homo sapiens) (UniProt Q52WX2); details: Compound concentration 1000.0 nM
[39] = target: Proto-oncogene tyrosine-protein kinase ROS (Homo sapiens) (UniProt P08922); details: Compound concentration 1000.0 nM
Proto-oncogene tyrosine-protein kinase ROS (Homo sapiens), sequence (P08922 whole entry): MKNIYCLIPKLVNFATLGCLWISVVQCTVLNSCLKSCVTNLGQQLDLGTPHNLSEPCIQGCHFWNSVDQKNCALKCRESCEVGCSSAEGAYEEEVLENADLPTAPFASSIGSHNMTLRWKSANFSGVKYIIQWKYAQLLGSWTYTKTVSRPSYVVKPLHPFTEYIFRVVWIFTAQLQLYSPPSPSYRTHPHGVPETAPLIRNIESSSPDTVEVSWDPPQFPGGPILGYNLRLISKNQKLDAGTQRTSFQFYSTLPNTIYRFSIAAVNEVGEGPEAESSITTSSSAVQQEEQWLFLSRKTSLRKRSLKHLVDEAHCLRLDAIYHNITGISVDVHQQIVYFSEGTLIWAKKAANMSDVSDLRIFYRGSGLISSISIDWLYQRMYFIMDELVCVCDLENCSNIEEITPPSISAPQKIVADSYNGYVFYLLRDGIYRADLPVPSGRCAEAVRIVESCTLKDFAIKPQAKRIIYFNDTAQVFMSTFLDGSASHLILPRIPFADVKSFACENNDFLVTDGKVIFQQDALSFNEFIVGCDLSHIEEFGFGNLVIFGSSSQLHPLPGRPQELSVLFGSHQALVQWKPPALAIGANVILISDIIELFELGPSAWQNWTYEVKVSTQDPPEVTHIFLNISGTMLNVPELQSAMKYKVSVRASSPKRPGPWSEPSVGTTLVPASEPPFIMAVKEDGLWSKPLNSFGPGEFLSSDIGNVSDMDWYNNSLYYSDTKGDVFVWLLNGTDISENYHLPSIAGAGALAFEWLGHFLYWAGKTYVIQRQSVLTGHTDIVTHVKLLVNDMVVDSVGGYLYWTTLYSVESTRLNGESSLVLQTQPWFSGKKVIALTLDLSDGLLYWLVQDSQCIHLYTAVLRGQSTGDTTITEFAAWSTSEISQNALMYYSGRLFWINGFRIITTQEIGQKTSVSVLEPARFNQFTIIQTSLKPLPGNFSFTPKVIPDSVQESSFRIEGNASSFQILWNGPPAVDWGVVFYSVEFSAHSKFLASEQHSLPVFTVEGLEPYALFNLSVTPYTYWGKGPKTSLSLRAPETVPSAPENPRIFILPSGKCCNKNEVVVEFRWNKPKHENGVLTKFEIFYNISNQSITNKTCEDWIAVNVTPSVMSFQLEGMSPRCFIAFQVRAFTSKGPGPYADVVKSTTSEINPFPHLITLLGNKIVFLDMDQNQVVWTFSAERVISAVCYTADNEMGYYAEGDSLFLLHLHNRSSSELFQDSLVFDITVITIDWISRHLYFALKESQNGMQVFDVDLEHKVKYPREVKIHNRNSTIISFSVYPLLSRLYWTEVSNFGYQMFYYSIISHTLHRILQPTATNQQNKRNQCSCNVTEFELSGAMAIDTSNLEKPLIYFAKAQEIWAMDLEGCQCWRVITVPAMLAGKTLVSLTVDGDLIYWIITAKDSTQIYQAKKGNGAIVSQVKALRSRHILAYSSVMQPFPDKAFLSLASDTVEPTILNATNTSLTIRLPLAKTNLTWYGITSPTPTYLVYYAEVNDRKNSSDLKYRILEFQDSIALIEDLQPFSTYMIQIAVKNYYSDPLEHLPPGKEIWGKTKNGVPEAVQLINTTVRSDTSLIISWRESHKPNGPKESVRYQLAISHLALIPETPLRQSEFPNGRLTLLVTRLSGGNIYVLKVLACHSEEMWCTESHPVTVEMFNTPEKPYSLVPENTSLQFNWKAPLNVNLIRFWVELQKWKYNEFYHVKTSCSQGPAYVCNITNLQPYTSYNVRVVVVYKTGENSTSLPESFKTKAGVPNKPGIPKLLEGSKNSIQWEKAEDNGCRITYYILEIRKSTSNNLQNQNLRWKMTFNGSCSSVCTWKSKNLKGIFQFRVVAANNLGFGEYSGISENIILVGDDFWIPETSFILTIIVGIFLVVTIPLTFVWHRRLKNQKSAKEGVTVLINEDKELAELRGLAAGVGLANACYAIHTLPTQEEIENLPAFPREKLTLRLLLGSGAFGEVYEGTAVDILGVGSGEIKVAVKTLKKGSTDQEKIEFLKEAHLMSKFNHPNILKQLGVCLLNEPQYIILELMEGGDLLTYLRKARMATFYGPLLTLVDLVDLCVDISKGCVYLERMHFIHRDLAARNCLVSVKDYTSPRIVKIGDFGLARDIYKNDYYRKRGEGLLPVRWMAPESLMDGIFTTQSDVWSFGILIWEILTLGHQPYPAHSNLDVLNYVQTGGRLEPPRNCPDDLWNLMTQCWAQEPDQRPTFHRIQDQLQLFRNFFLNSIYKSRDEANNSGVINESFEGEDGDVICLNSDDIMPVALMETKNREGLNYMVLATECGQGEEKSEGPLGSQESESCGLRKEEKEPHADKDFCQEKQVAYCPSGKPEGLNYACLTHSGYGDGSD

[40] = target: NT-3 growth factor receptor (Homo sapiens) (UniProt Q16288); details: Compound concentration 1000.0 nM
NT-3 growth factor receptor (Homo sapiens), sequence (Q16288 32-839 limits assumed): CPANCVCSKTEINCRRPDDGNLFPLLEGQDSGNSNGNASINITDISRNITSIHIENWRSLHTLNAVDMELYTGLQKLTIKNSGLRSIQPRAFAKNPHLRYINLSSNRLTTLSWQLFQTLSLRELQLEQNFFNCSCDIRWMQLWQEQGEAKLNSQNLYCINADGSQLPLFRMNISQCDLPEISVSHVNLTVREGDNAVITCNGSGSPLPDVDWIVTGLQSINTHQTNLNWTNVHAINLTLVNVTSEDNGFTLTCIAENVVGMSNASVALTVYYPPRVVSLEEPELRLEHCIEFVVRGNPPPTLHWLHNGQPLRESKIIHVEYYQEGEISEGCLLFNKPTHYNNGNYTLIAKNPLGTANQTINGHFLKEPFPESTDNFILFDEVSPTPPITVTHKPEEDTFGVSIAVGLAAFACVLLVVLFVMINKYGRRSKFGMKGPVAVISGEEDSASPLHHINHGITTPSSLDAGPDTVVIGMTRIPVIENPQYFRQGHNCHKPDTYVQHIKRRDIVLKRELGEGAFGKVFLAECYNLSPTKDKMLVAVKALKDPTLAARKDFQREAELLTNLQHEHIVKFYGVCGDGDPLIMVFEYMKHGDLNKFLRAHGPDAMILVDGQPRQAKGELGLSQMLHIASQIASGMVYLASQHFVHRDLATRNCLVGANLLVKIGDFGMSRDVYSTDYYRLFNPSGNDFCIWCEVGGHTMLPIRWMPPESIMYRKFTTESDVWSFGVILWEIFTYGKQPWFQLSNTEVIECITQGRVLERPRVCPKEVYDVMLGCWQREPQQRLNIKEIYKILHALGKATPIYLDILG

[41] = target: Ankyrin repeat and protein kinase domain-containing protein 1 (Homo sapiens) (UniProt Q8NFD2); details: Compound concentration 1000.0 nM
[42] = target: Serine/threonine-protein kinase TAO3 (Homo sapiens) (UniProt Q9H2K8); details: Compound concentration 1000.0 nM
[43] = target: Mitogen-activated protein kinase kinase kinase 11 (Homo sapiens) (UniProt Q16584); details: Compound concentration 1000.0 nM
[44] = target: Cyclin-dependent kinase-like 2 (Homo sapiens) (UniProt Q92772); details: Compound concentration 1000.0 nM
[45] = target: Macrophage colony-stimulating factor 1 receptor (Homo sapiens) (UniProt P07333); details: Compound concentration 1000.0 nM

Cc1nc(N2CC[C@@H](O)C2)ncc1-c1cc(C(F)(F)F)cc2[nH]ncc12 [TP-004]
inactive: residual activity [1] 100% | residual activity [2] 100% | residual activity [3] 100% | residual activity [4] 84% | residual activity [5] 80% | residual activity [6] 79% | residual activity [7] 71% | residual activity [8] 65% | residual activity [9] 87% | residual activity [10] 100% | residual activity [11] 81% | residual activity [12] 80% | residual activity [13] 76% | residual activity [14] 95% | residual activity [15] 83% | residual activity [16] 100% | residual activity [17] 92% | residual activity [18] 100% | residual activity [19] 100% | residual activity [20] 83% | residual activity [21] 100% | residual activity [22] 61% | residual activity [23] 92% | residual activity [24] 100% | residual activity [25] 100% | residual activity [26] 90% | residual activity [27] 100% | residual activity [28] 68% | inhibition [29] 15.9% | inhibition [30] -5.62% | residual activity [31] 100% | inhibition [32] -2.13% | residual activity [33] 100% | residual activity [34] 76% | residual activity [35] 74% | residual activity [36] 73% | residual activity [37] 100% | residual activity [38] 82% | residual activity [39] 86% | residual activity [40] 66% | residual activity [41] 85% | residual activity [42] 82% | residual activity [43] 100% | residual activity [44] 100% | residual activity [45] 82%
